In ChEMBL document CHEMBL1139232, “Isothiazoloquinolones with enhanced antistaphylococcal activities against multidrug-resistant strains: effects of structural modifications at the 6-, 7-, and 8-positions” (J Med Chem, 2007):
In brackets after ≈: the same amount, converted by molar mass.

Columns and labels:
Staphylococcus aureus [1] = assay: Antibacterial activity against methicillin-resistant Staphylococcus aureus; format: functional
[2] = Cytotoxicity against human Hep2 cell line after 72 hrs; format: cell-based, HEp-2; conditions: Hep2 cells
Staphylococcus aureus [3] = assay: Antibacterial activity against Staphylococcus aureus; format: functional
Staphylococcus aureus [4] = assay: Antibacterial activity against vancomycin-sensitive Staphylococcus aureus F988633; format: functional
[5] = Inhibition of Staphylococcus aureus topoisomerase 4 by decatenation assay
Staphylococcus aureus [6] = assay: Antibacterial activity against methicillin-sensitive Staphylococcus aureus; format: functional
[7] = Cytotoxicity against human HepG2 cells after 72 hrs; format: cell-based
[8] = target: DNA topoisomerase 2-alpha (Homo sapiens) (UniProt P11388)
Sequence of DNA topoisomerase 2-alpha (Homo sapiens) (P11388 whole entry): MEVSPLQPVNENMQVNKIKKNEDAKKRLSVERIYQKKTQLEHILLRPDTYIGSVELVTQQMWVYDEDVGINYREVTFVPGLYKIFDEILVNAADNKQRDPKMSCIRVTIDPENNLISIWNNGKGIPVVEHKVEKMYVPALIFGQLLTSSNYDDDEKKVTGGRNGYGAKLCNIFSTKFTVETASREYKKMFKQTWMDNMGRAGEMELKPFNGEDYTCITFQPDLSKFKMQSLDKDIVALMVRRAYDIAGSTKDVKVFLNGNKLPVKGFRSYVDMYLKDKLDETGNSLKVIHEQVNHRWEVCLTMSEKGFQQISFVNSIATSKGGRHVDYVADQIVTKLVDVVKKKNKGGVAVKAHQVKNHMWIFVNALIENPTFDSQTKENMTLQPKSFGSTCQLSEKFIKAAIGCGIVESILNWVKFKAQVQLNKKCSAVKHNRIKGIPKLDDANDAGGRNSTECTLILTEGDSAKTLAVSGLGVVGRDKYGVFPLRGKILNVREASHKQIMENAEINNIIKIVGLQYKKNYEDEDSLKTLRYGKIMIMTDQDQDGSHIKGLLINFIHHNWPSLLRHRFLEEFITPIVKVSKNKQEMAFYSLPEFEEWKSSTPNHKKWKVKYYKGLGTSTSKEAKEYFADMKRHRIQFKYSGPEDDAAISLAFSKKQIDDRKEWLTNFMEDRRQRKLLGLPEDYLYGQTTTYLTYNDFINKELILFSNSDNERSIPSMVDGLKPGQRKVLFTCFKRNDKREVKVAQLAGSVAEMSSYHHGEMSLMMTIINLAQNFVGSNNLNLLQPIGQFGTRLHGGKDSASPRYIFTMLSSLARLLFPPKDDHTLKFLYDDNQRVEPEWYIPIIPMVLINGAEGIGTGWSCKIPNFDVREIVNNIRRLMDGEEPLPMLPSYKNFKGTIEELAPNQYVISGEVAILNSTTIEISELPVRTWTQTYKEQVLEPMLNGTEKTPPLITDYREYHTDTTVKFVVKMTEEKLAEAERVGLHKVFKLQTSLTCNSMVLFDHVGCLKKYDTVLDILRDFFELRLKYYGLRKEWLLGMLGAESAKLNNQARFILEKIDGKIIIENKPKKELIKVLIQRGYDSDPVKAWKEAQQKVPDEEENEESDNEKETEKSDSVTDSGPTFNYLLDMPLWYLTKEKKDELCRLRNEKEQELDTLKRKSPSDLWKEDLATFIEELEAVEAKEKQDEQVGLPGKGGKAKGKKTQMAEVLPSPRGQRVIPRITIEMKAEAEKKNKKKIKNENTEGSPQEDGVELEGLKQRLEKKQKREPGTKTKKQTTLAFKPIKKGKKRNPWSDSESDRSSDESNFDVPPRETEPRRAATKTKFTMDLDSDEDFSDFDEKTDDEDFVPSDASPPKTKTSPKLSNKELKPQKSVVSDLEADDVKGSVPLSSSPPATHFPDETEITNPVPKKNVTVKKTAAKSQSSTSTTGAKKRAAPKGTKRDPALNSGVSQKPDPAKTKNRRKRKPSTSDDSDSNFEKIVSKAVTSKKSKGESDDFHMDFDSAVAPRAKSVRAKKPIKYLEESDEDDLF

DNA gyrase = DNA gyrase (Staphylococcus aureus, UniProt P0A0K8+P20831); assay: Inhibition of Staphylococcus aureus DNA gyrase by supercoiling assay; format: protein-complex assay
Sequence of DNA gyrase (P0A0K8 whole entry): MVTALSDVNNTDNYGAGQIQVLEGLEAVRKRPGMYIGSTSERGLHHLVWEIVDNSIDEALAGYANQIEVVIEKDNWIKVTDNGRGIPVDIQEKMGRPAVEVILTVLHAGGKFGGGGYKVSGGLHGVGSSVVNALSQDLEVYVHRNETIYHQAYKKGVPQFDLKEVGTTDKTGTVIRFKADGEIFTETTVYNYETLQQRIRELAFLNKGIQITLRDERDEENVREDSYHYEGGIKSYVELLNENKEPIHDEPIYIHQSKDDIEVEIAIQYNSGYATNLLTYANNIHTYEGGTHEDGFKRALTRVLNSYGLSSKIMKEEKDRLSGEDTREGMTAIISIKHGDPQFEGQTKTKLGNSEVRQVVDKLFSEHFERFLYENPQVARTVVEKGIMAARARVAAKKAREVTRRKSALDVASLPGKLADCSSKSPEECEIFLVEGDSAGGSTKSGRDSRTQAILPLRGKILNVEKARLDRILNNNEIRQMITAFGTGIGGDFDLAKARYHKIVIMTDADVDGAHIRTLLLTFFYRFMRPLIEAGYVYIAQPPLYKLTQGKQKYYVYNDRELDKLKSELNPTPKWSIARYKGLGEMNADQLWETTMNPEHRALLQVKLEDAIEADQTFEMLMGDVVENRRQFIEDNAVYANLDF
Sequence of DNA gyrase (P20831 whole entry): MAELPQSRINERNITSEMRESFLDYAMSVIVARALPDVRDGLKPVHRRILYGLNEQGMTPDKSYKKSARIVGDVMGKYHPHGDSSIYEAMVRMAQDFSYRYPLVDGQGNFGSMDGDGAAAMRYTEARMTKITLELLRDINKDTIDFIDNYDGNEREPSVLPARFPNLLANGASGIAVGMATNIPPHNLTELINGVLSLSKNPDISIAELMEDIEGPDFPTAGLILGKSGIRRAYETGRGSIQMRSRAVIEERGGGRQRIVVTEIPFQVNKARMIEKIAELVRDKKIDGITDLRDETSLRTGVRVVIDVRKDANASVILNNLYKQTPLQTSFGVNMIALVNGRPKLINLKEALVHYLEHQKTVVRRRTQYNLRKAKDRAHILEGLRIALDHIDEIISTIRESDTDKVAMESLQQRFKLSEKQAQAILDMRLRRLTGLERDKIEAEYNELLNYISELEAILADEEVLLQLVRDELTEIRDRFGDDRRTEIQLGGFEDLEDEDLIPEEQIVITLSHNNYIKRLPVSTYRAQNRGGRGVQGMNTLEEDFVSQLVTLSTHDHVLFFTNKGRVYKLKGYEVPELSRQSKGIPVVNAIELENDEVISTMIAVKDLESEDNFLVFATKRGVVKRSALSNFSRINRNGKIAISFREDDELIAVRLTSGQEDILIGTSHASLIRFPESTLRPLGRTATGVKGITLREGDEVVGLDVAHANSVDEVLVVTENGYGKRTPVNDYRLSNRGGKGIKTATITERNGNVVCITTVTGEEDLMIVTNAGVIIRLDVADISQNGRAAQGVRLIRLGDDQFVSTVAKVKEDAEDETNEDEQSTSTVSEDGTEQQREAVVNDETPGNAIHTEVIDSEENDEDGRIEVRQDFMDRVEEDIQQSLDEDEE

Staphylococcus aureus [9] = assay: Antibacterial activity against fluoroquinolone-resistant Staphylococcus aureus 273/T/T/T; format: functional
Hepatocyte = assay: Cytotoxicity against rat hepatocytes after 48 hrs; format: functional
Staphylococcus aureus [10] = assay: Antibacterial activity against Staphylococcus aureus ATCC 33591 infected in CD1 mouse at 20 mg/kg, sc; format: functional; conditions: route subcutaneous

O=c1[nH]sc2c1c(=O)c1cc(F)c(-c3ccncc3)nc1n2C1CC1 showed an MIC (Staphylococcus aureus [1]) of 2 mg/L (≈ 5.64 µM) and a CC50 at 72 h [2] greater than 100 µM.

Work on C[C@H]1COc2c(N3CCN(C)CC3)c(F)cc3c(=O)c(C(=O)O)cn1c23.C[C@H]1COc2c(N3CCN(C)CC3)c(F)cc3c(=O)c(C(=O)O)cn1c23.O [LEVOFLOXACIN] yielded an MIC50 (Staphylococcus aureus [1]) greater than 16 mg/L, an MIC50 (Staphylococcus aureus [3]) of 16 mg/L and an MIC90 (Staphylococcus aureus [3]) greater than 16 mg/L. It also gave an MIC (Staphylococcus aureus [4]) of 16 mg/L.

For COc1c(-c2ccc3c(c2)CCN(C)C3)ccc2c(=O)c3c(=O)[nH]sc3n(C3CC3)c12, the MIC (Staphylococcus aureus [1]) was 8 mg/L (≈ 18.5 µM) and the CC50 at 72 h [2] was greater than 100 µM.

Work on COc1c(-c2ccc3cnccc3c2)c(F)cc2c(=O)c3c(=O)[nH]sc3n(C3CC3)c12 yielded an MIC (Staphylococcus aureus [1]) of 0.12 mg/L (≈ 0.277 µM) and a CC50 at 72 h [2] of 39 µM.

For O=C(O)c1cn(C2CC2)c2cc(N3CCNCC3)c(F)cc2c1=O [CIPROFLOXACIN], the MIC (Staphylococcus aureus [1]) was 32 mg/L (≈ 96.6 µM), the CC50 at 72 h [2] was greater than 100 µM and the IC50 [5] was 1 µM. The MIC (Staphylococcus aureus [6]) was 0.25 mg/L (≈ 0.754 µM), the CC50 at 72 h [7] was greater than 100 µM and the EC2 [8] was greater than 150 µM.

With Cc1cc(-c2nc3c(cc2F)c(=O)c2c(=O)[nH]sc2n3C2CC2)ccn1 the MIC (Staphylococcus aureus [1]) was 8 mg/L (≈ 21.7 µM) and the CC50 at 72 h [2] was greater than 100 µM.

Work on O=c1[nH]sc2c1c(=O)c1cc(F)c(-c3ccc4c(c3)CCNC4)cc1n2C1CC1 yielded an MIC (Staphylococcus aureus [1]) of 2 mg/L (≈ 4.91 µM) and a CC50 at 72 h [2] of 7 µM.

Work on COc1c(-c2cc(C)nc(C)c2)c(F)cc2c(=O)c3c(=O)[nH]sc3n(C3CC3)c12 yielded an MIC (Staphylococcus aureus [1]) of 0.25 mg/L (≈ 0.608 µM), an MIC50 (Staphylococcus aureus [1]) of 0.12 mg/L (≈ 0.292 µM) and an MIC90 (Staphylococcus aureus [1]) of 1 mg/L (≈ 2.43 µM). For the same compound, the CC50 at 72 h [2] was 64 µM, the MIC50 (Staphylococcus aureus [3]) was 0.12 mg/L (≈ 0.292 µM) and the MIC90 (Staphylococcus aureus [3]) was 0.5 mg/L (≈ 1.22 µM). For the same compound, the IC50 [5] was 0.9 µM, the IC50 (DNA gyrase) was 3.2 µM and the MIC (Staphylococcus aureus [6]) was 0.004 mg/L (≈ 0.00972 µM). It also gave an MIC (Staphylococcus aureus [9]) of 0.25 mg/L (≈ 0.608 µM), a CC50 at 72 h [7] of 65 µM and a CC50 (Hepatocyte) greater than 100 µM. For the same compound, the EC2 [8] was 55 µM.

For C[C@H]1NCc2cc(-c3cc4c(cc3F)c(=O)c3c(=O)[nH]sc3n4C3CC3)ccc21, the MIC (Staphylococcus aureus [1]) was 1 mg/L (≈ 2.45 µM) and the CC50 at 72 h [2] was 2 µM.

In the case of COc1c(-c2ccncc2)c(F)cc2c(=O)c3c(=O)[nH]sc3n(C3CC3)c12, the MIC (Staphylococcus aureus [1]) is reported as 1 mg/L (≈ 2.61 µM) and the CC50 at 72 h [2] is reported as greater than 100 µM.

CC(=O)NC[C@H]1CN(c2ccc(N3CCOCC3)c(F)c2)C(=O)O1 [LINEZOLID] showed an MIC50 (Staphylococcus aureus [1]) of 2 mg/L (≈ 5.93 µM), an MIC90 (Staphylococcus aureus [1]) of 2 mg/L (≈ 5.93 µM) and an MIC50 (Staphylococcus aureus [3]) of 2 mg/L (≈ 5.93 µM). The MIC90 (Staphylococcus aureus [3]) was 2 mg/L (≈ 5.93 µM), the MIC (Staphylococcus aureus [4]) was greater than 16 mg/L and the Log10 cfu (Staphylococcus aureus [10]) was 0.2.

Compound COc1c(-c2ccncc2)ccc2c(=O)c3c(=O)[nH]sc3n(C3CC3)c12 has an MIC (Staphylococcus aureus [1]) of 0.5 mg/L (≈ 1.37 µM) and a CC50 at 72 h [2] greater than 100 µM.

In the case of COc1c(-c2ccc3c(c2)CNC3)c(F)cc2c(=O)c3c(=O)[nH]sc3n(C3CC3)c12, the MIC (Staphylococcus aureus [1]) is reported as 0.5 mg/L (≈ 1.18 µM), the MIC50 (Staphylococcus aureus [1]) is reported as 0.5 mg/L (≈ 1.18 µM) and the MIC90 (Staphylococcus aureus [1]) is reported as 2 mg/L (≈ 4.72 µM). For the same compound, the CC50 at 72 h [2] was 19 µM, the MIC50 (Staphylococcus aureus [3]) was 0.5 mg/L (≈ 1.18 µM) and the MIC90 (Staphylococcus aureus [3]) was 1 mg/L (≈ 2.36 µM). For the same compound, the IC50 [5] was 0.1 µM, the IC50 (DNA gyrase) was 2 µM and the MIC (Staphylococcus aureus [6]) was 0.008 mg/L (≈ 0.0189 µM). The MIC (Staphylococcus aureus [9]) was 0.5 mg/L (≈ 1.18 µM), the CC50 at 72 h [7] was 35 µM and the CC50 (Hepatocyte) was 75 µM. For the same compound, the EC2 [8] was 75 µM.

For COc1c(-c2ccnc(C)c2)ccc2c(=O)c3c(=O)[nH]sc3n(C3CC3)c12, the MIC (Staphylococcus aureus [1]) was 1 mg/L (≈ 2.64 µM) and the CC50 at 72 h [2] was greater than 100 µM.
